From PMC6321252 (Molecules, 2018)

What was measured:
db/db mice = assay: Hypoglycemic study in diabetic db/db mice; type: in vivo, C57BLKS/J db/db mice; settings: for AUC for the IPTT vs nontreated db/db mice / AUC for the OGTT vs nontreated db/db mice: 5 weeks administration; for AUC for the IPTT vs nontreated db/db mice / AUC for the OGTT vs nontreated db/db mice / effect on body weight (obesity): metformin 150 mg/kg, BB 200 mg/kg, BB 200 mg/kg plus OPCs 60 mg/kg; for effect on body weight (obesity): repeated oral administration 4 weeks
Protocol: Male C57BLKS/J db/db and db/m mice were obtained from the Model Animal Research Center of Nanjing University (Nanjing, China). The mice were housed in a temperature-and humidity-controlled room with free access to standard chow and water under a 12/12-h light/dark cycle. At 6 weeks of age, the diabetic db/db mice were randomly divided into 4 groups (n = 10 per group). […] After 6 h of fasting, their blood glucose was monitored using blood from the tail vein and a glucometer (Accu-CHEK, Roche, IN, USA) every week. On Days 33 and 35 after drug administration, the mice were fasted for 12 and 6 h to perform an OGTT and IPTT, respectively. At the end of the experimental period, the mice’s blood was collected for further studies. Serum TG and TC levels were assayed using commercial enzyme assay kits (Rongsheng, Shanghai, China).

P-gp = settings: cited from earlier work
[1] = Transepithelial transport of BB across Caco-2 cell monolayers; type: in vitro ADME; settings: human, read-out: efflux ratio R = Papp(B-A)/Papp(A-B) of BB
Protocol: (§1) Monolayers were employed at 21 days after seeding. To ensure the integrity of each cell monolayer, transepithelial electrical resistance was determined. Subsequently, cell monolayers were incubated with compounds in fresh incubation media from either the AP or BL side for designated time periods at 37 °C. The volume of incubation media on the AP and BL sides was 0.5 and 1.5 mL, respectively, and a 30 µL aliquot of the incubation solution was withdrawn at designated time points (60, 120, 180, and 240 min) from the receiver compartment and replaced with the same volume of a fresh prewarmed HBSS buffer.
(§2) BB concentrations were detected through LC–MS/MS. Apparent permeability (Papp) was calculated as follows:Papp = (dQ/dt) × VA/(C0 × A)(1) where dQ/dt is the permeability rate, A is the surface area of the monolayer, and C0 is the initial concentration of the drug.

Caco-2 cell monolayers = assay: as above; type: in vitro ADME
Protocol: as §1, §2

[2] = set-up: method as in PMID 21637946; settings: cited from earlier work
Caco-2 cells = assay: Cell viability (MTT assay) in Caco-2 cells; type: cell-based; settings: BB 12.5 to 50 μM, 24 h
Protocol: The cells were treated with different doses of compounds and incubated for 24 h. Cell viability was determined using the MTT assay. Briefly, the cells were incubated with the MTT reagent (0.5 mg/mL) at 37 °C for 4 h, and the absorbency at a wavelength of 492 nm was measured using FlexStation 3 (Molecular Devices, Sunnyvale, CA, USA). The percentage of optical density was calculated by comparing with that of the control group.

| SMILES | AUC for the IPTT vs nontreated db/db mice (db/db mice; p < 0.001 vs. control) | AUC for the OGTT vs nontreated db/db mice (db/db mice; p < 0.001 vs. control) | hepatotoxicity (from serum ALT and AST) (db/db mice; 5 weeks, BB 200 mg/kg with or without OPCs 60 mg/kg) | lowering of fasting blood glucose (FBG) (db/db mice; oral, 4 weeks, BB 200 mg/kg with or without OPCs 60 mg/kg, p < 0.001 vs. control) | effect on body weight (obesity) (db/db mice) | P-gp substrate status (P-gp) | efflux ratio at 240 min [1] | Papp(A-B) of BB (Caco-2 cell monolayers; apical to basolateral) | Papp(B-A) of BB (Caco-2 cell monolayers; basolateral to apical) | oral bioavailability [2] | cytotoxicity on Caco-2 cells (MTT) (Caco-2 cells) |
| --- | --- | --- | --- | --- | --- | --- | --- | --- | --- | --- | --- |
| COc1ccc2cc3[n+](cc2c1OC)CCc1cc2c(cc1-3)OCO2 [BB, Berberine] | significantly lower | significantly lower | did not cause hepatotoxicity | 35% | no significant effect | substrate of P-gp | 7.74 ± 1.13 | 0.146 ± 0.012 ×10^−6 | 1.001 ± 0.049 ×10^−6 | < 1% | no toxic effect |
| CN(C)C(=N)N=C(N)N [metformin] | significantly lower | significantly lower | – | – | no significant effect | – | – | – | – | – | – |
